Experimental data: patent US20220193209A1, “COMPOSITIONS AND METHODS FOR REACTIVATING LATENT IMMUNODEFICIENCY VIRUS AND/OR TREATING IMMUNODEFICIENCY VIRUS INFECTION” (The J. David Gladstone institutes, a testamentary trust …, priority 2019, published 2022)

Tests used:
CD4+ T cells = format: cell-based, human
Description: CD69 and CD25 expression was measured by flow cytometry gating on CD3^+CD4^+ T cells using FITC-labeled antibodies for CD3 (11-0048-42, eBioscience), APC-conjugated CD25 antibodies (17-0259-42, eBioscience), PerCP-labeled antibodies for CD4 (300528, Biolegend), and CD69-V450 (560740, BD Horizon). Staining was performed for 30 min on ice in FACS buffer (PBS, 2% FBS), and samples were analyzed on a BD Biosciences LSRII flow cytometer. Shown are the percentages of positive cells relative to total CD3^+ CD4^+ T cells or median fluorescence intensity (MFI).
FIG. 6, Panel A, the cell surface CD69 and CD25 T cell activation markers were measured by FACS in CD4^+ T cells upon AS1842856 treatment for 24, 48 and 72 h. 10 μg/mLαCD3 and 1 μg/mL αCD28 was used as control. Data is shown as percentage of positive cells and as mean±SD of two biological replicates. FIG. 6, Panel B, depicts the same as in FIG. 6, Panel A, but measuring FOXO1 target genes (IL7R, KLRG1, CD62L) after 48 h of AS1842856 treatment (n=3). […]. Cells were allowed to rest for 6 days before 72 h reactivation was induced with PHA/IL-2 and 10 μg/mL αCD3 and 1 μg/mLαCD28. Data are mean±SEM of at least 3 individual donors. Data represent average SD of 9-13 independent experiments. […] Cell viability was assessed by Trypan Blue exclusion.

FOXO1 = target: T1, FOXO1 (Homo sapiens, UniProt Q12778); assay: Cellular Thermal Shift Assay (CETSA) in K562 cells, FOXO1; format: binding; settings: 1 μM
T1 construct: performed against the FOXO isoforms expressed in K562 cells; endogenous in cells; host or cells: K562
Description: K562 cells (ATCC) were maintained in appropriate volume of RPMI medium supplemented with 10% fetal bovine serum (Serum Plus—II, Sigma MO, USA), 100 units/mL penicillin and 100 […] (Corning, VA, USA). Short-term passages (<15) were used for all experiments. For CETSA, K562 cell were freshly seeded the day before the experiment. The day of experiment, equal numbers of cells were counted by Moxi Mini automated cell counter (Orflo) and 0.6×10^6 cells per data point were seeded in T-25 cell culture flasks (VWR, PA, USA) in appropriate volume of culture medium. Cells were exposed to […] AS1842856 or equal volume DMSO for 3 hours in an incubator with 5% CO2 and 37° C. […] The supernatants were transferred to new microcentrifuge tubes and analyzed by SDS-PAGE followed by immunoblotting analysis. […] Immunoblotting results were subjected to densitometric analysis (Image J) and melting temperatures of FOXO1, FOXO3 and FOXO4 were determined by Prism 7 (GraphPad) using nonlinear least-squares regression fit to Y=100/(1+10^(Log IC50−X)*H), where H=Hill slope (variable). The viability of the cells was assessed in triplicate by trypan blue exclusion. […]
Briefly, K562 cells were treated with increasing concentrations of the FOXO1 inhibitor AS1842856 just after HIVGKO infection. After 3-4 days, the percentage of latent cells and productive cells were quantified by FACS. […]

T1 sequence (Q12778 whole entry, canonical isoform): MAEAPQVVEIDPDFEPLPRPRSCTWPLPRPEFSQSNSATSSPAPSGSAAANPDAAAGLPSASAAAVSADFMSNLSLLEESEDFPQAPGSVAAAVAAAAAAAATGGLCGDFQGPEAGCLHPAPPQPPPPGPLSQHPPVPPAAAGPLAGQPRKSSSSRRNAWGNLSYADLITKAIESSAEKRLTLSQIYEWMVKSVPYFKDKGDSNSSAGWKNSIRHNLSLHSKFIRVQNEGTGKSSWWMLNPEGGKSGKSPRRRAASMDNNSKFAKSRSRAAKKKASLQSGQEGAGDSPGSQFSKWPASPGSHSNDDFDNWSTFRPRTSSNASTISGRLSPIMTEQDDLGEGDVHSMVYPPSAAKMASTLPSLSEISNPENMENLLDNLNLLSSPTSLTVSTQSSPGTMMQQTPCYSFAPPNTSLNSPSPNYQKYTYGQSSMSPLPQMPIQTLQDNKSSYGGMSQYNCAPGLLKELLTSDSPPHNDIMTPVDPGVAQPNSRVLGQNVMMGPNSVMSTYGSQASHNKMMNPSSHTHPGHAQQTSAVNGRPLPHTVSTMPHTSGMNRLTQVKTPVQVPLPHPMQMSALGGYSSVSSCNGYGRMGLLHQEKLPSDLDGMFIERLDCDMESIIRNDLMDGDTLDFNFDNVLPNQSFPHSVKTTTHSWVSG

CCn1cc(C(=O)O)c(=O)c2c(N)c(F)c(NC3CCCCC3)cc21 [AS1842856, 5-amino-7-(cyclohexylamino)-1-ethyl-6-fluoro-4-oxo-1,4-dihydro-quinoline-3-carboxylic acid]
generalized T cell activation (CD69 and CD25 expression) (CD4+ T cells): not observed | shift in FOXO1 melting curve (FOXO1): 7.23 °C
